These compounds were tested against T1, recombinant human PDE 10A1 (Homo sapiens, UniProt Q9Y233) (assay: PDE10 biochemical assay (two-step Thompson and Appleman method or SPA)). Conditions: not given.
T1 construct: made in house; host or cells: Sf9 insect cells, baculoviral system
Description: After the appropriate incubation time, the reaction is terminated by heating. The mixture is then subjected to treatment with snake venom phosphatase. […] IC50 values can be calculated by performing the experiment at several concentrations using standard graphical means. A detailed description of the actual technique used for IC50 assays as set forth in following Examples.
The phosphodiesterase (PDE) assay was performed using recombinant human PDE 1A3, 2A3, 3 catalytic region, 4 catalytic region, 5 catalytic region, 7A, 8A, 9A2, 10A1 and 11A1 enzymes expressed in a baculoviral system using Sf9 cells. PDE activity was measured using a modification of the two-step method of Thompson and Appleman described above which was adapted for 96 well plate format. […] Reactions were initiated with enzyme and incubated with (^3H)-substrate and substance for 20 minutes at 30° C. The reaction was terminated by denaturing the enzyme (heating the reaction to 70° C. for 2 minutes). The reaction was then cooled at 4° C. for 10 minutes before the addition of snake venom (Crotalus atrox, 0.2 mg/ml) for 10 minutes at 30° C., thus allowing non-specific hydrolysis of the tritiated substrate. Separation of the remaining unhydrolysed cyclic nucleotide was achieved by a batch binding of the mixture to activated Dowex (200 μl) anion exchange resin. The anion exchange resin bound the charged nucleotides, leaving only hydrolysed (^3H) substrate in the soluble fraction. The soluble fraction (50 μl) was then added to microscint-20 (200 μl) and counted on a Top Count Plate reader. Radioactivity units were plotted against inhibitor concentration and IC50 values obtained using Graph Pad Prism software.
Alternatively, phosphodiesterase activity was measured by scintillation proximity assay (SPA) with [^3H]-cGMP as substrate. Purified PDE10 was diluted and stored in 25 mM Tris-Cl (pH 8.0)/100 mM NaCl/0.05% Tween 20/50% glycerol/3 mM DTT. Assays contained (final concentrations): 50 mM Tris-Cl (pH 7.5)/8.3 mM MgCl2/1.7 mM EGTA/0.5 mg/ml BSA/5% DMSO and 2 ng PDE10 in a final volume of 0.1 mL. Inhibition was evaluated at 8 concentrations in duplicate. Reactions were initiated by addition of enzyme and were terminated after 20 minutes at 30° C. by the addition of 50 μl of SPA beads containing Zn^++. The mixture was shaken, allowed to settle for 3 hours, and counted in a Wallac plate counter. Results (net cpm) were fitted to a four parameter logistic model using Excel Solver®.

T1 sequence (Q9Y233 1-779 isoform Q9Y233-1): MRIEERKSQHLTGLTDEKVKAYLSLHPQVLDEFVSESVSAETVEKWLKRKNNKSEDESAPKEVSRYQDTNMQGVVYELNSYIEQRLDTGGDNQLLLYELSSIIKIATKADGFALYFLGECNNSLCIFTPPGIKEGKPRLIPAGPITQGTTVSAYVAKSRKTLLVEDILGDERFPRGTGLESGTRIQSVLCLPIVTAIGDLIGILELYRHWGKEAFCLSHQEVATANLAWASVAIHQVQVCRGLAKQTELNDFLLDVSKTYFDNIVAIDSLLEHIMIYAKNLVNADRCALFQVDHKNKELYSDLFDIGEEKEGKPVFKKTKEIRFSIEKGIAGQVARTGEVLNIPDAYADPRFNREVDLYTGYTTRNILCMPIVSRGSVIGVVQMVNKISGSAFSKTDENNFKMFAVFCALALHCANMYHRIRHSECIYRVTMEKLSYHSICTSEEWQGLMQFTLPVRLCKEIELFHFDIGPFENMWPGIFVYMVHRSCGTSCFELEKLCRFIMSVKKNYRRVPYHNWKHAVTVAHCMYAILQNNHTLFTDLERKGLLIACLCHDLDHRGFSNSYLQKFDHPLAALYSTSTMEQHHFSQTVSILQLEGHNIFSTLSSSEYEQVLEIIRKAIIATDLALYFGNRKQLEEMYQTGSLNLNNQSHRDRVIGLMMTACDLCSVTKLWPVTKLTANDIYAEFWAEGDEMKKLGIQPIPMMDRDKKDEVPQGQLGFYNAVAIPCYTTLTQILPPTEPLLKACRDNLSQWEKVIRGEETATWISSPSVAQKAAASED

Structure (SMILES)	IC50 [nM]
CCOc1cc(/C=N/NC(=O)C(OC)c2ccc(Cl)cc2)ccc1OC (stereo not drawn) [Compound 12-7]	≤ 1000
COc1ccc(/C=N/N(C)C(=O)C(OC)c2ccccc2)cc1OC (stereo not drawn) [Compound 12-70, (E)-N′-(3,4-Dimethoxybenzylidene)-2-methoxy-N-methyl-2-phenylacetohydrazide]	≤ 1000

Same assay, conditions: PDE10 inhibition; read-out: IC50

Structure (SMILES)	IC50 [nM]
COc1cc(/C=N/NC(=O)C(OC)c2cc3ccccc3s2)cc(Cl)c1OC (stereo not drawn) [Compound 12-42]	≤ 1000
COc1cc(/C=N/NC(=O)C(OC)c2ccc(Cl)cc2)cc(Cl)c1OC (stereo not drawn) [Compound 12-6]	≤ 1000
COCCOC(C(=O)N/N=C/c1cc(Br)c(OC)c(OC)c1)c1ccc2ccccc2c1 (stereo not drawn) [Compound 12-48]	≤ 1000
COc1cc(/C=N/NC(=O)C(OC)c2ccc(Cl)cc2)cc(C#N)c1OC (stereo not drawn) [Compound 12-14]	≤ 1000
COc1cc(/C=N/NC(=O)C(OC)c2ccccc2)cc(OC)c1OC (stereo not drawn) [Compound 12-17]	≤ 1000
COc1cc(/C=N/NC(=O)C(OC)c2ccc(Cl)cc2)ccc1C#N (stereo not drawn) [Compound 12-22]	≤ 1000
COc1cc(/C=N/N=C(\OC(=O)C(C)(C)C)C(OC)c2cccc3ccccc23)cc(OC)c1OC (stereo not drawn) [Compound 5-1, (1Z, N′E)-2-Methoxy-2-(naphthalen-1-yl)-N′-(3,4,5-trimethoxybenzylidene)acetohydrazonic pivalic anhydride]	≤ 1000
CCOC(C(=O)N/N=C/c1cc(Br)c(OC)c(OC)c1)c1ccc2c(c1)OCCN2C (stereo not drawn) [Compound 12-86]	≤ 1000
COc1cc(Cl)c(/C=N/NC(=O)C(OC)c2ccc3c(c2)OCCO3)cc1OC (stereo not drawn) [Compound 12-83]	≤ 1000
COc1cc(/C=N/NC(=O)C(OC)c2ccc3ccccc3c2)cc(OC)c1OC (stereo not drawn) [Compound 1-1, (E)-2-Methoxy-2-(naphthalen-2-yl)-N′-(3,4,5-trimethoxybenzylidene)acetohydrazide]	≤ 1000
COc1cc(/C(C)=N/NC(=O)C(OC)c2ccccc2)cc(OC)c1OC (stereo not drawn) [Compound 12-69]	≤ 1000
COc1cc(/C=N/NC(=O)C(OC)c2ccc(N3CCCC3)cc2)cc(OC)c1Cl (stereo not drawn) [Compound 12-126]	≤ 1000
COc1ccc(/C=N/NC(=O)C(OC)c2ccc3ccccc3c2)cc1OC1CCCC1 (stereo not drawn) [Compound 12-18]	≤ 1000
CCOc1ccc(/C=N/NC(=O)C(OC)c2ccccc2)cc1OCC (stereo not drawn) [Compound 12-26]	≤ 1000
CCOc1cc(/C=N/NC(=O)C(OC)c2ccc(Cl)cc2)cc(Br)c1OC (stereo not drawn) [Compound 12-2]	≤ 1000
CCOC(C(=O)N/N=C/c1cc(Br)c(OC)c(OC)c1)c1cccc2c1OCCO2 (stereo not drawn) [Compound 12-129]	≤ 1000
COc1cc(/C=N/NC(=O)C(OC)c2ccc(Cl)cc2)ccc1C (stereo not drawn) [Compound 12-8]	≤ 1000
COc1cc(/C=N/NC(=O)C(OC)c2ccnc3ccccc23)cc(OC)c1OC (stereo not drawn) [Compound 12-56]	≤ 1000
CCOC(C(=O)N/N=C/c1cc(OC)c(OC)c(OC)c1)c1cccc2c1OCCO2 (stereo not drawn) [Compound 12-130]	≤ 1000
COc1ccc(C(OC)C(=O)N/N=C/c2ccc(OC)c(OC)c2)cc1 (stereo not drawn) [Compound 12-19]	≤ 1000

Structure (SMILES)	IC50 [nM]
CCOC(C(=O)N/N=C/c1cc(OC)c(Br)c(OC)c1)c1ccc2c(c1)OCCN2C (stereo not drawn) [Compound 12-84]	≤ 1000
COc1ccc(/C=N/NC(=O)C(SC)c2ccccc2)cc1OC (stereo not drawn) [Compound 4-1, (E)-N′-(3,4-Dimethoxybenzylidene)-2-(methylthio)-2-phenylacetohydrazide]	≤ 1000
COc1cc(/C=N/NC(=O)Cc2ccc(N3CCOCC3)cc2)cc(OC)c1Br [Compound 12-139]	≤ 1000
COc1cc(/C=N/NC(=O)C(OC)c2ccc(F)cc2)cc(OC)c1Br (stereo not drawn) [Compound 12-1]	≤ 1000
CCOC(C(=O)N/N=C/c1cc(OC)c(C)c(OC)c1)c1cccc2c1OCCO2 (stereo not drawn) [Compound 12-128]	≤ 1000
CCC(C(=O)N/N=C/c1ccc(OC)c(OC)c1)c1ccccc1 (stereo not drawn) [Compound 12-71]	≤ 1000
COc1cc(/C=N/NC(=O)C(OC)c2cccc3ncccc23)cc(OC)c1OC (stereo not drawn) [Compound 6-1, (E)-2-methoxy-2-(quinolin-5-yl)-N′-(3,4,5-trimethoxybenzylidene)acetohydrazide]	≤ 1000
CCOC(C(=O)N/N=C/c1cc(OC)c(OC)c(OC)c1)c1cccc2ncccc12 (stereo not drawn) [Compound 12-59]	≤ 1000
COc1cc(/C=N/NC(=O)C(OCCN(C)C)c2ccc3c(c2)OCO3)cc(OC)c1Br (stereo not drawn) [Compound 12-109]	≤ 1000
COc1cc(/C=N/NC(=O)C(OC)c2cc3ccccc3s2)cc(OC)c1OC (stereo not drawn) [Compound 8-1, (E)-2-(Benzo[b]thiophen-2-yl)-2-methoxy-N′-(3,4,5-trimethoxybenzylidene)acetohydrazide]	≤ 1000
COCCOC(C(=O)N/N=C/c1cc(OC)c(Br)c(OC)c1)c1ccc2ccccc2c1 (stereo not drawn) [Compound 12-43]	≤ 1000
COc1cc(/C=N/N(CC(F)(F)F)C(=O)C(OC)c2ccc(-n3cccn3)cc2)cc(OC)c1Br (stereo not drawn) [Compound 11-1, (E)-2-(4-(1H-pyrazol-1-yl)phenyl)-N′-(4-bromo-3,5-dimethoxybenzylidene)-2-methoxy-N-(2,2,2-trifluoroethyl)acetohydrazide]	≤ 1000
COc1cc(/C=N/NC(=O)C(OC)c2cccc3ccccc23)cc(OC)c1OC (stereo not drawn) [Compound 12-13]	≤ 1000
COc1cc(/C=N/NC(=O)C(c2ccccc2)c2ccccc2)cc(OC)c1OC [Compound 3-1, (E)-2,2-Diphenyl-N′-(3,4,5-trimethoxybenzylidene)acetohydrazide]	≤ 1000
COc1cc(/C=N/NC(=O)C(OCCN(C)C)c2ccc3ccccc3c2)cc(OC)c1Br (stereo not drawn) [Compound 12-123]	≤ 1000
COc1cc(/C=N/NC(=O)Cc2ccccc2)cc(OC)c1OC [Compound 12-89]	≤ 1000
COc1cc(/C=N/NC(=O)C(OC)c2ccc(Cl)cc2)cc(OC)c1Br (stereo not drawn) [Compound 12-12]	≤ 1000
CCOC(C(=O)N/N=C/c1cc(Br)c(OC)c(OC)c1)c1ccc2c(c1)OCCO2 (stereo not drawn) [Compound 12-135]	≤ 1000
COCCOC(C(=O)N/N=C/c1cc(OC)c(OC)c(OC)c1)c1ccc2ccccc2c1 (stereo not drawn) [Compound 12-45]	≤ 1000
COc1ccc(/C=N/NC(=O)C(OC)c2ccc3ccccc3c2)cc1OC (stereo not drawn) [Compound 12-23]	≤ 1000

Structure (SMILES)	IC50 [nM]
COc1cc(/C(C)=N/NC(=O)C(OC)c2ccc(-n3cccn3)cc2)cc(OC)c1OC (stereo not drawn) [Compound 12-144]	≤ 1000
COc1cc(/C=N/NC(=O)C(OC)c2cnc3ccccc3c2)cc(OC)c1OC (stereo not drawn) [Compound 12-61]	≤ 1000
CCOC(C(=O)N/N=C/c1cc(OC)c(Br)c(OC)c1)c1cccc2c1OCCO2 (stereo not drawn) [Compound 12-131]	≤ 1000
CCOC(C(=O)N/N=C/c1cc(Cl)c(OC)c(OC)c1)c1ccc2c(c1)OCCN2C (stereo not drawn) [Compound 12-85]	≤ 1000
COc1ccc(/C=N/NC(=O)Cc2ccc(OC)c(OC)c2)cc1OC [Compound 12-90]	≤ 1000
COc1ccc(/C=N/NC(=O)C(c2ccccc2)C(C)C)cc1OC (stereo not drawn) [Compound 9-1, (E)-N′-(3,4-Dimethoxybenzylidene)-3-methyl-2-phenylbutanehydrazide]	≤ 1000
COc1cc(/C=N/NC(=O)C(OC)c2ccc3c(c2)OCO3)cc(Br)c1OC (stereo not drawn) [Compound 12-116]	≤ 1000
CCOC(C(=O)N/N=C/c1cc(OC)cc(OC)c1)c1cccc2ncccc12 (stereo not drawn) [Compound 12-120]	≤ 1000
COc1cc(/C=N/NC(=O)C(OC)c2cccc(N(C)C)c2)cc(OC)c1O (stereo not drawn) [Compound 12-124]	≤ 1000
COc1cc(/C=N/NC(=O)C(OC)c2ccccc2)ccc1C (stereo not drawn) [Compound 12-20]	≤ 1000
COc1cc(/C=N/NC(=O)C(OC)c2ccc(N(C)C)cc2)cc(OC)c1OC (stereo not drawn) [Compound 7-1, (E)-2-(4-(Dimethylamino)phenyl)-2-methoxy-N′-(3,4,5-trimethoxybenzylidene)acetohydrazide]	≤ 1000
COc1cc(/C=N/NC(=O)C(OC)c2ccnc3ccccc23)cc(Br)c1OC (stereo not drawn) [Compound 12-58]	≤ 1000
COc1cc(/C=N/NC(=O)C(OC)c2cccc(N(C)C)c2)cc(Br)c1OC (stereo not drawn) [Compound 12-122]	≤ 1000
COc1ccc(/C=N/NC(=O)C(OC)c2ccc3ccccc3c2)cc1OC(F)F (stereo not drawn) [Compound 12-16]	≤ 1000
COc1cc(/C=N/NC(=O)C(Oc2ccccc2)c2ccccc2)cc(OC)c1OC (stereo not drawn) [Compound 12-41]	≤ 1000
COc1cc(/C=N/NC(=O)C(OC)c2ccc(Cl)cc2)cc(OC)c1OC (stereo not drawn) [Compound 12-15]	≤ 1000
COc1ccc(/C=N/NC(=O)C(OC)c2ccc(Cl)cc2)cc1OC (stereo not drawn) [Compound 12-10]	≤ 1000
COc1ccc(/C=N/NC(=O)C(OC)c2ccc(-n3cccn3)cc2)cc1OC (stereo not drawn) [Compound 12-155]	≤ 1000

— US9783521B2, “PDE10 inhibitors and related compositions and methods” (Omeros Corporation, priority 2008, dated 2017)
